Assay results from US20190100549A1, “FLAVONOIDE-TYPE COMPOUNDS BEARING AN O-RHAMNOSYL RESIDUE” (Universitaet Hamburg, priority 2016, published 2019).
“And” between values parts separate entries of the source, which are not always exact repeats. Identical values can stand only once.

Key:
[1] = system: STAT3; experiment: STAT3 activity in HeLa-STAT3-luc cells stimulated with IFN-γ (luciferase); type: cell-based; conditions: 50 μM test substance, +IFNγ 25 U/ml; IFNγ alone = 100% activation
Method: HeLa-STAT3-luc cells were stably transfected with the plasmid 4xM67 pTATA TK-Luc. Cells (20×10^3 cells/ml) were seeded 96-well plate the day before the assay. Then the cells were treated with the test substances for 15 min and then stimulated with IFN-γ 25 IU/ml. After 6 h, the cells were washed twice with PBS and lysed in 50 μl lysis buffer containing 25 mM Tris-phosphate (pH 7.8), 8 mM MgCl2, 1 mM DTT, 1% Triton X-100, and 7% glycerol during 15 min at RT in a horizontal shaker. Luciferase activity was measured using GloMax 96 microplate luminometer (Promega) following the instructions of the luciferase assay kit (Promega, Madison, Wis., USA). […] The experiments for each concentration of the test items were done in triplicate wells.

[2] = system: normal human epidermal keratinocytes (NHEK); experiment: Cytotoxicity on NHEK monolayer cultures (MTT reduction assay and morphological observation); type: cell-based; conditions: for Viability (%): single values
Method: To determine the cytotoxicity of flavonoid-5-O-α-L-rhamnosides tests were performed versus their aglycon derivatives in cell monolayer cultures. For this purpose concentrations ranging from 1 μM to 250 μM were chosen. The viability of normal human epidermal keratinocytes (NHEK) was twice evaluated by a MTT reduction assay and morphological observation with a microscope. NHEK were grown at 37° C. and 5% CO2 aeration in Keratinocyte-SFM medium supplemented with epidermal growth factor (EGF) at 0.25 ng/mL, pituitary extract (PE) at 25 μg/mL and gentamycin (25 μg/mL) for 24 h and were used at the 3rd passage. For cytotoxicity testing, pre-incubated NHEK were given fresh culture medium containing a specific concentration of test compound and incubated for 24 h. After a medium change at same test concentration cells were incubated a further 24 h until viability was determined. Test results are given in Table B2 and illustrated in FIG. 10.

| SMILES | Viability (%) Mean ([2]; 1 μM) [%] | Viability (%) ([2]; 1 μM) | Viability (%) Mean ([2]; 2.5 μM) [%] | Viability (%) ([2]; 2.5 μM) | Viability (%) Mean ([2]; 5 μM) [%] | Viability (%) ([2]; 5 μM) | Viability (%) Mean ([2]; 10 μM) [%] | Viability (%) ([2]; 10 μM) | Viability (%) Mean ([2]; 25 μM) [%] | Viability (%) ([2]; 25 μM) | Viability (%) Mean ([2]; 50 μM) [%] | Viability (%) ([2]; 50 μM) | Viability (%) Mean ([2]; 100 μM) [%] | Viability (%) ([2]; 100 μM) | Viability (%) Mean ([2]; 250 μM) [%] | Viability (%) ([2]; 250 μM) | other results |
| --- | --- | --- | --- | --- | --- | --- | --- | --- | --- | --- | --- | --- | --- | --- | --- | --- | --- |
| COc1ccc(-c2cc(=O)c3c(O)cc(O)cc3o2)cc1O [Diosmetin, 5,7-Trihydroxy-4′-methoxyflavone, reference compound] | – | – | – | – | – | – | – | – | – | – | – | – | – | – | – | – | % Activation [1]: 50.00% |
| COc1ccc(C2CC(=O)c3c(O)cc(O)cc3O2)cc1O (stereo not shown) [Hesperetin, 3′,5,7-Trihydroxy-4′-methoxyflavanone] | 105 | 103% and 106% | 103 | 98% and 109% | 106 | 107% and 106% | 103 | 101% and 105% | 108 | 106% and 109% | 106 | 106% | 99 | 98% and 100% | 57 | 54% and 59% | Viability (%) Mean ([2]; 250 μM, listed as hesperetin): about 50% |
| O=C1CC(c2ccc(O)cc2)Oc2cc(O)cc(O)c21 (stereo not shown) [Naringenin, 4′,5,7-Trihydroxyflavanone] | 95 | 96% and 95% | 93 | 95% and 92% | 92 | 93% and 91% | 95 | 95% | 92 | 89% and 94% | 89 | 85% and 94% | 75 | 76% and 74% | 47 | 48% and 47% | Morph. obs. ([2]; 100 μM): +/−, *; Morph. obs. ([2]; 250 μM): +/−, *; Viability (%) Mean ([2]; 250 μM, listed as naringenin): about 50% |
